Measurements taken from ChEMBL document CHEMBL1157539, “Thousands of chemical starting points for antimalarial lead identification” (Nature, 2010).

Each molecule was assayed on Plasmodium falciparum (assay: GSK_TCMDC: Inhibition of Plasmodium falciparum 3D7 in whole erythrocytes, using parasite LDH activity as an index of growth.). Details: Plasmodium falciparum, 3D7.
Type: functional, organism-based

`O=C(Nc1cc(Cl)ccc1O)c1cnn2c(C(F)(F)F)cc(-c3cccs3)nc12` and `CNC(=O)c1cc(NCCCNCc2ccc(Cl)c(C(F)(F)F)c2)nc2ccccc12` are within 1.5-fold of each other in XC50: 859 nM for the first, 931 nM for the second.

First: FC(F)(F)c1ccc2[nH]c(-c3ccc(-c4ccc(CNCCN5CCNCC5)cc4)s3)nc2c1
Second: Fc1ccc2[nH]c(-c3ccc(-c4ccc(CNCCc5cccnc5)cc4)s3)nc2c1
The XC50 of the first is 3.9-fold higher: 910 nM for the first, 236 nM for the second.

`FC(F)(F)c1cc(Nc2ncnc3ccc(Br)cc23)ccc1OCc1ccccc1` and `CN(C)Cc1cccc2nc(-c3csc(Cc4cc(Cl)ccc4OCc4ccccc4)n3)[nH]c12` are within 1.5-fold of each other in XC50: 1080 nM for the first, 1120 nM for the second.

First: CCOC(=O)c1[nH]c2ccc(F)cc2c1NC(=O)CN1CCN(c2cccc(C(F)(F)F)c2)CC1
Second: CC(Cc1ccc(OCCN2CCN(c3ccc(Cl)cc3)CC2)cc1)NCC(O)c1cccc(C(F)(F)F)c1 (stereo unspecified)
The XC50 of the first is 1.8-fold lower: 458 nM for the first, 807 nM for the second.

Going from `CN1CCN(Cc2ccc(-c3ccc4c(Nc5ccc(Cl)cc5F)ccnc4c3)o2)CC1` to `CN(C)CCN(C)Cc1cccc(-c2ccc3c(Nc4cc(O)c(Cl)cc4F)ccnc3c2)c1`, the XC50 rises from 155 nM to 237 nM (1.5-fold).

`CC(C)C(=O)NC(Nc1ccc([N+](=O)[O-])cc1)C(Cl)(Cl)Cl` (stereo unspecified) and `CC1CCCN(c2ccc(NC(=O)c3cccs3)cc2[N+](=O)[O-])C1` (stereo unspecified) are within 1.5-fold of each other in XC50: 835 nM for the first, 669 nM for the second.

Compared with `Cn1cccc1CCNCc1ccc(-c2cccc(-c3nc4cc(F)ccc4[nH]3)c2)cc1`, `NC(=O)c1cccc(CNCc2ccc(-c3cccc(-c4nc5ccccc5[nH]4)c3)cc2)c1` is 2.1-fold lower in XC50: 1220 nM for the first, 592 nM for the second.

Going from `O=c1ccc(CNc2nc(NCCc3ccccc3)nc3ccc(Cl)cc23)c[nH]1` to `COc1cc2nc(NCCn3nc(C)cc3C)nc(NCCc3ccccc3)c2cc1OC`, the XC50 falls from 783 nM to 436 nM (1.8-fold).

Going from `Clc1ccc(C2CCN(CCCOc3ccc4c(c3)CCNCC4)CC2)cc1` to `N#Cc1ccc(C2CCN(CC[C@H](N)Cc3ccc(Cl)s3)CC2)cc1`, the XC50 rises from 754 nM to 1260 nM (1.7-fold).

`S=C(NCCCCCN1CCC(c2c[nH]c3ccccc23)CC1)Nc1cccc(I)c1` and `O=C1Nc2cccc3c2C1(CCCCN1CCC(c2c(-c4ccc(F)cc4)[nH]c4ccccc24)CC1)CCC3` (stereo unspecified) are within 1.5-fold of each other in XC50: 845 nM for the first, 1190 nM for the second.

`COc1cccc(-c2cnc(-c3ccncc3)nc2C2CCN(Cc3ccc(NC(C)=O)cc3)CC2)c1` and `CN(c1cc(NC(=O)c2ccc(F)cc2)ccn1)C1CCN(Cc2ccc(C#N)cc2)CC1` are within 1.5-fold of each other in XC50: 1500 nM for the first, 1510 nM for the second.

`CCN1CCC(N(Cc2ccc(-c3ccc(C(F)(F)F)cc3)cc2)C(=O)Cn2c(CCc3cccc(F)c3F)cc(=O)c3ccc(OCc4ccccc4)cc32)CC1` and `c1ccc(CN2CCC(NCc3ccccc3-c3ccc(CNCc4ccc5c(c4)OCO5)cc3)CC2)cc1` are within 1.5-fold of each other in XC50: 368 nM for the first, 326 nM for the second.

`CCN1CCN(Cc2ccc(NC(=O)c3cc4ccc5cccnc5c4[nH]3)cc2)CC1` and `Cc1ccc(NC(=O)c2ccc(CN3CCCN(Cc4cccc(O)c4)CC3)cc2)cc1` are within 1.5-fold of each other in XC50: 848 nM for the first, 743 nM for the second.

`CC12CCC(CN(CC(O)Cn3c4ccccc4c4cc(I)ccc43)C1)C2(C)C` (stereo unspecified) and `CC1(C)C(=O)Nc2ccccc2N1C(=O)CN1CCN(c2ccccc2O)CC1` are within 1.5-fold of each other in XC50: 1160 nM for the first, 1070 nM for the second.

`Cc1cnc(CNCc2ccc(S(=O)(=O)Nc3ccc(Oc4cccc(Cl)c4)cc3)cc2)cn1` and `c1ccc(Oc2ccc(Nc3ccnc(Nc4ccc5cn[nH]c5c4)n3)cc2)cc1` are within 1.5-fold of each other in XC50: 766 nM for the first, 733 nM for the second.

Compared with `Oc1ccc(CCCc2cc(Oc3c(I)cc(CCc4ncc[nH]4)cc3I)ccc2O)cc1`, `O=C(NCCCc1ccccc1)c1ccc(O)c(-c2cc(Cl)cc(Cl)c2)c1` is 1.5-fold lower in XC50: 873 nM for the first, 567 nM for the second.

Compared with `CCC[C@@H]([C@@H](CC1CCCCC1)C(=O)N[C@@H](CCOC(=O)NCC)C(=O)Nc1nccs1)N(O)C=O`, `CCC[C@@H]([C@@H](CC1CCCCC1)C(=O)N[C@H](C(=O)Nc1nccs1)C(C)(C)SC)N(O)C=O` is 1.9-fold higher in XC50: 81.8 nM for the first, 152 nM for the second.

`CCNc1cc(C)nc(Nc2ccc(NC(=O)C3CCCC3)cc2)n1` and `COc1ccc(N2CCN(c3nc(Nc4ccc(NC(C)=O)cc4)nc(N4CCCC4)n3)CC2)cc1` are within 1.5-fold of each other in XC50: 1120 nM for the first, 976 nM for the second.

`CC(=NNC(S)=NC(c1ccccc1)c1ccccc1)c1ccccn1` and `COc1ccccc1CNC(=O)C(=O)Nc1c(-c2ccccc2)[nH]c2ccccc12` are within 1.5-fold of each other in XC50: 896 nM for the first, 737 nM for the second.

`COc1cc(Cc2cnc(N)nc2N)ccc1OCc1ccc(F)c(F)c1` and `CCOc1ccc(-c2nonc2NC(=O)c2ccccc2F)cc1OCC` are within 1.5-fold of each other in XC50: 910 nM for the first, 841 nM for the second.

Compared with `CC1=C(C(=O)Nc2cc3cn[nH]c3cc2F)C(c2cccc(NS(C)(=O)=O)c2)CC(=O)N1` (stereo unspecified), `CC(=O)Nc1ccc(C(=O)Nc2ccc(-c3cccc(-c4nc5cc(F)ccc5[nH]4)c3)cc2)cn1` is 1.9-fold lower in XC50: 434 nM for the first, 231 nM for the second.

First: CC(C)COc1ccc(Cl)cc1Cc1ccc(-c2nc3ccc(Br)cc3[nH]2)o1
Second: COc1ccc2nc3cc(Cl)ccc3c(NCCCO)c2c1
The XC50 of the first is 1.8-fold higher: 1400 nM for the first, 783 nM for the second.

Going from `COc1cccc(NC(=O)Nc2cc(C)nc3ccccc23)c1` to `COc1ccc(NC(=O)Nc2cccc(-c3cccc(-c4nc5ccccc5[nH]4)c3)c2)cc1`, the XC50 falls from 723 nM to 309 nM (2.3-fold).

`O=C(Nc1cccc(F)c1)N1CCC(CN2CCOC(c3ccccc3)(c3ccccc3)C2)CC1` and `O=C(Nc1cc(F)cc(F)c1)N1CCOC(CCN2CCC3(CCc4ccccc43)CC2)(c2ccc(Cl)c(Cl)c2)C1` (stereo unspecified) are within 1.5-fold of each other in XC50: 198 nM for the first, 275 nM for the second.

Going from `Cc1noc(C)c1-c1cccc(CNCc2cccc(-c3ccc(-c4nc5cccc(C)c5[nH]4)s3)c2)c1` to `CC(C)(CNCc1cccc(Oc2ccccc2)c1)c1nc(-c2ccnc(N)n2)c(-c2ccc(Cl)c(O)c2)[nH]1`, the XC50 rises from 211 nM to 760 nM (3.6-fold).

Going from `CN(C)CCCNc1ncnc2c1[nH]c1ccc(Cl)cc12` to `CCN(CCCN1CCCCC1)c1cc(C)nc(Nc2cc(Cl)ccc2C)n1`, the XC50 rises from 279 nM to 633 nM (2.3-fold).

First: CCc1c(CCNCCCCCCNCCc2ccc([N+](=O)[O-])cc2)ccc(OC)c1OC
Second: CCc1c(CCNCCCC(C)CCNCCc2ccc(OC)c(OC)c2CC)ccc(OC)c1OC (stereo unspecified)
The XC50 of the first is 1.5-fold lower: 727 nM for the first, 1110 nM for the second.

`N#Cc1ccc2c(c1)CN(C1CCC(NC(=O)c3cc(-c4ccc(Cl)cc4)cs3)CC1)CCC2` (stereo unspecified) and `COc1cccc(-c2cc(C(=O)NC3CCC(N4CCC(c5ccccc5C)CC4)CC3)[nH]n2)c1` (stereo unspecified) are within 1.5-fold of each other in XC50: 956 nM for the first, 1120 nM for the second.

Going from `CCn1c(-c2nonc2N)nc2cnc(Oc3cccc(NC(=O)c4ccc(OCCN5CCCCC5)cc4)c3)cc21` to `CCOc1ccc(N2CCN(CCCCNC(=O)c3ccc(NC(=O)c4ccc(Cl)cc4)cc3)CC2)c(OCC)c1`, the XC50 falls from 1060 nM to 567 nM (1.9-fold).

First: CCN(CC)c1ccc2nc(N)nc(N)c2c1Cl
Second: CCC(Cc1cnc2nc(N)nc(N)c2n1)c1ccc(C(=O)O)cc1 (stereo unspecified)
The XC50 of the first is 8.1-fold lower: 30.9 nM for the first, 250 nM for the second.

`CO/C(=C\C=C\c1cc2cc(Cl)c(Cl)cc2[nH]1)C(=O)NCCCN1CCN(C2CCCCC2)CC1` and `O=C(/C=C/c1ccc(Cl)c(Cl)c1)N1CCC(CCCN2CCC(c3c[nH]c4ccc(O)cc34)CC2)CC1` are within 1.5-fold of each other in XC50: 1010 nM for the first, 694 nM for the second.

`CCCCCCN1CCCN(Cc2cccc(C(=O)Nc3ccc(C(C)(C)C)cc3)c2)CC1` and `O=C(Nc1ccc(CN2CCN(S(=O)(=O)c3cccc(Cl)c3)CC2)cc1)c1cccs1` are within 1.5-fold of each other in XC50: 943 nM for the first, 1080 nM for the second.

`CN(C)CCCNc1nccc(N(C)c2ccc(NC(=O)Nc3cc(C(F)(F)F)ccc3F)cc2)n1` and `FC(F)(F)c1cccc(CCNc2nccc(NCc3ccccc3Cl)n2)c1` are within 1.5-fold of each other in XC50: 980 nM for the first, 1170 nM for the second.

First: CCOc1ccc(N2C(N)=NC(N)=NC2(C)C)cc1
Second: COc1ccc(CSC2CCCCC23NC(=S)NC3=S)cc1 (stereo unspecified)
The XC50 of the first is 3.3-fold lower: 259 nM for the first, 850 nM for the second.

`CCCN(CCC)C(=O)c1cc(C(=O)N[C@@H](Cc2ccccc2)[C@H](O)CNCc2cccc(C(F)(F)F)c2)cc(N2CCCCS2(=O)=O)c1` and `Cc1cc2c(cc1C(F)(F)F)N(C(=O)Nc1cccc(C(=O)NC3CCN(Cc4ccccc4)CC3)c1)CC2` are within 1.5-fold of each other in XC50: 876 nM for the first, 912 nM for the second.

`Cc1noc(C)c1C(=O)N1CCCC(c2[nH]c3c(C)cccc3c2-c2ccncc2)C1` (stereo unspecified) and `c1cc(CN2CCCCC2)cc(-c2csc(-c3nc4ccccc4[nH]3)c2)c1` are within 1.5-fold of each other in XC50: 843 nM for the first, 848 nM for the second.

First: CCCCCCCCCC(=O)NCC1CC(Br)=NO1 (stereo unspecified)
Second: CCCCCC(=O)NCC(NCCCNc1cc(=O)c2ccccc2[nH]1)c1cc(Br)cc(Br)c1 (stereo unspecified)
The XC50 of the first is 1.6-fold higher: 1050 nM for the first, 652 nM for the second.

First: CCOC(=O)c1[nH]c2cc(Cl)cc(Cl)c2c1/C=C/C(=O)Nc1ccc(-c2cnc(NC(C)=O)[nH]2)cc1
Second: O=C(Nc1ccc(-c2cccc(-c3nc4cc(F)ccc4[nH]3)c2)cc1)Nc1ccc(Cl)c(Cl)c1
The XC50 of the first is 1.6-fold higher: 1020 nM for the first, 647 nM for the second.

`CCCOc1ccc(-c2nonc2NC(=O)c2ccccc2OC)cc1OCCC` and `O=C(Nc1ccc(-c2ccccc2)c(OCCN2CCNCC2)c1)c1ccc(-c2ccc(Cl)cc2)cc1` are within 1.5-fold of each other in XC50: 858 nM for the first, 779 nM for the second.

`Cc1nc(C)c(-c2ccc(Br)cc2)c(O)c1Br` and `CC(=Nc1ccc(Cl)c(Cl)c1)N(C)C` are within 1.5-fold of each other in XC50: 638 nM for the first, 540 nM for the second.

`COc1cc(N)cc2sc(N)nc12` and `N=C(N)c1ccc2[nH]c(-c3cc4cc(C(=N)N)ccc4o3)cc2c1` are within 1.5-fold of each other in XC50: 251 nM for the first, 179 nM for the second.

`Clc1cccc(CNc2nc(NCCc3c[nH]cn3)nc(NC3CCCCC3)n2)c1` and `Cc1c(Cl)cccc1S(=O)(=O)Nc1cccc(CCN2CCC(N3CCCCC3)CC2)c1` are within 1.5-fold of each other in XC50: 790 nM for the first, 830 nM for the second.

First: CC[C@H]1CN2CC[C@@H]1C[C@H]2[C@H](O)c1cc(N2CCC(C(N)=O)CC2)nc2ccc(OC)cc12
Second: CC(C)C[C@H](NC(=O)c1cc2ccccc2s1)C(=O)N[C@H]1CCN(Cc2ccc(I)c(OCCN3CCCC3)c2)C1
The XC50 of the first is 1.7-fold lower: 773 nM for the first, 1350 nM for the second.

Going from `c1cc(Nc2nc(-c3ccc(-c4csc(Nc5ccncc5)n4)cc3)cs2)ccn1` to `O=C(Nc1cccc(-c2csc(NC(=O)c3ccc4ccccc4c3)n2)c1)c1ccc2ccccc2c1`, the XC50 rises from 117 nM to 711 nM (6.1-fold).

`COc1cc(NCC2(CNCc3cn(Cc4ccccc4)c4ccccc34)CCCCC2)nc2ccccc12` and `CN(C)c1cccc(NC(=O)NC2N=C(c3ccccc3)c3ccccc3N(CC(=O)N(C)c3ccccc3)C2=O)c1` (stereo unspecified) are within 1.5-fold of each other in XC50: 946 nM for the first, 947 nM for the second.

First: CN(C)c1ccc(-c2ccc(C(=O)NC3CCN(Cc4cccc(C(F)(F)F)c4)CC3)s2)cc1
Second: O=C(Nc1ccc(OC2CCN(Cc3ccc(F)cc3)C2)cc1)c1cccs1 (stereo unspecified)
The XC50 of the first is 1.5-fold higher: 985 nM for the first, 642 nM for the second.

`O=C(Nc1ccc(Cn2ncc(N3CCCNCC3)c(Cl)c2=O)cc1)Nc1ccc(-c2ccccc2)cc1` and `Cn1c(CN2CCC(N3CCc4cc(NC(=O)c5ccco5)ccc43)C2)cc2ccccc21` (stereo unspecified) are within 1.5-fold of each other in XC50: 797 nM for the first, 876 nM for the second.

`CC(C)(C)NS(=O)(=O)c1cc(C(=O)N2CCC(CCN3CCC(C(=O)c4ccc(F)cc4)CC3)(c3cccc(F)c3)CC2)c(Cl)cc1F` and `COC(=O)c1ccc(CC(C)NCC(O)c2ccc(C(O)CNC(C)Cc3ccc(C(=O)OC)cc3)cc2)cc1` (stereo unspecified) are within 1.5-fold of each other in XC50: 746 nM for the first, 1030 nM for the second.
